B1: CysM: Escherichia coli O-acetyl-L-serine sulfhydrylase with C-terminal StrepTagII, purified by affinity chromatography (protein, UniProt P16703 1-303, looked up)
Cysteine synthase B: MSTLEQTIGNTPLVKLQRMGPDNGSEVWLKLEGNNPAGSVKDRAALSMIVEAEKRGEIKPGDVLIEATSGNTGIALAMIAALKGYRMKLLMPDNMSQERRAAMRAYGAELILVTKEQGMEGARDLALEMANRGEGKLLDQFNNPDNPYAHYTTTGPEIWQQTGGRITHFVSSMGTTGTITGVSRFMREQSKPVTIVGLQPEEGSSIPGIRRWPTEYLPGIFNASLVDEVLDIHQRDAENTMRELAVREGIFCGVSSGGAVAGALRVAKANPDAVVVAIICDRGDRYLSTGVFGEEHFSQGAGI
B2: CysK: Escherichia coli O-acetyl-L-serine sulfhydrylase with C-terminal StrepTagII, purified by affinity chromatography (protein, UniProt P0ABK5 2-323, looked up)
Cysteine synthase A: SKIFEDNSLTIGHTPLVRLNRIGNGRILAKVESRNPSFSVKCRIGANMIWDAEKRGVLKPGVELVEPTSGNTGIALAYVAAARGYKLTLTMPETMSIERRKLLKALGANLVLTEGAKGMKGAIQKAEEIVASNPEKYLLLQQFSNPANPEIHEKTTGPEIWEDTDGQVDVFIAGVGTGGTLTGVSRYIKGTKGKTDLISVAVEPTDSPVIAQALAGEEIKPGPHKIQGIGAGFIPANLDLKLVDKVIGITNEEAISTARRLMEEEGILAGISSGAAVAAALKLQEDESFTNKNIVVILPSSGERYLSTALFADLFTEKELQQ

Assays:
[1] = target: T1, O-acetyl-L-serine sulfhydrylase CysK (Escherichia coli, UniProt P0ABK5); format: biochemical; details: pH 7
T1 construct: StrepTagII (WSHPQFEK) (C); made in house; host or cells: E. coli BLR21(DE3) carrying pLE4 (T7 promoter, pRSET5a)
T1 sequence (P0ABK5 whole entry, looked up): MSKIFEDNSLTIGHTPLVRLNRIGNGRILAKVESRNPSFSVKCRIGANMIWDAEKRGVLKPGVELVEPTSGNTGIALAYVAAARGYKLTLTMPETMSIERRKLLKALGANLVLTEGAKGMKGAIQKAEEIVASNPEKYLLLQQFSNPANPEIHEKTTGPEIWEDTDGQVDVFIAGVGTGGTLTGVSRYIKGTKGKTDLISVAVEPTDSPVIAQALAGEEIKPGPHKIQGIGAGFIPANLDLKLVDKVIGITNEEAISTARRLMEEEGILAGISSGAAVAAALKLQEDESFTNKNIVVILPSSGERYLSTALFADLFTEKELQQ
Protocol: (§1) In order to use the O-acetyl-L-serine sulfhydrylases to prepare non-proteinogenic amino acids, other nucleophilic compounds were used in the reaction in place of sulfide or thiosulfate. In order to detect them, a precolumn derivatization for amino acids was carried out using ortho-phthaldialdehyde. Using this method, it was possible to carry out a broad screening for suitable nucleophilic substrates.
(§2) The mixtures contained 4 mM O-acetyl-L-serine (added from a 200 mM stock solution in 500 mM Nasuccinate buffer, pH 5.5), 20 mM nucleophilic compound, 100 mM K phosphate buffer, pH 7.0, and 5 μg of purified enzyme/ml. The reaction was stopped with 1/100th the volume of acetic acid (96% v/v) and analyzed by HPLC using a HP aminoquant column (200 mm×2.1 mm) in accordance with the manufacturer's instructions supplied by Hewlett Packard, Waldbronn, Germany.

[2] = target: T2, O-acetyl-L-serine sulfhydrylase CysM (Escherichia coli, UniProt P16703); format: biochemical; details: pH 7
T2 construct: StrepTagII (WSHPQFEK) (C); made in house; host or cells: E. coli DH5alpha carrying pFL145 (tet promoter, pASK-IBA3)
Protocol: as §1, §2

[3] = cited from earlier work
[4] = format: biochemical, Escherichia coli; details: 10 mM O-acetyl-serine, pH 7.0, 37° C., 5 μg purified enzyme/ml; for specific activity Acys (formation of cysteine using sulfide): 10 mM sodium sulfide
Protocol: The activity of O-acetyl-L-serine sulfhydrylases is measured by detecting the “natural” reaction product L-cysteine (Cys) or alternatively, in the case of CysM, also by detecting the reaction product as S-sulfo-L-cysteine (S-Cys). Both products can be detected very specifically and very sensitively using the test described by Gaitonde (1967, Biochem. J. 104: 627-633).
A typical test mixture contained 10 mM O-acetyl-serine (added from a 200 mM stock solution in 500 mM sodium succinate buffer, pH 5.5), 10 mM sodium sulfide or sodium thiosulfate, 100 mM potassium phosphate buffer, pH 7.0, and 5 μg of purified enzyme/ml, and is incubated at 37° C. The specific activity, A, is given in units/mg of protein, i.e. in μmol of product×min^−1×mg^−1 of protein. Acys denotes the specific activity of the formation of cysteine using sulfide. AS-Cys denotes the specific activity of the formation of S-sulfocysteine using thiosulfate. The specific activities using the proteins isolated in example 2 were: […]

Molecule | CysK conversion [1] | CysM conversion [2] | other results
1,2-Pyrazole | ++ (key: +++: conversion greater than 70% after 30 min; ++: conversion greater than 40% after 30 min; +: conversion greater than 10% after 30 min; −: conversion less than 5% after 30 min) | ++ (key: +++: conversion greater than 70% after 30 min; ++: conversion greater than 40% after 30 min; +: conversion greater than 10% after 30 min; −: conversion less than 5% after 30 min) | –
O[C@@H](CS)[C@@H](O)CS (racemic) [Dithiothreithol] | +++ (key: +++: conversion greater than 70% after 30 min; ++: conversion greater than 40% after 30 min; +: conversion greater than 10% after 30 min; −: conversion less than 5% after 30 min) | +++ (key: +++: conversion greater than 70% after 30 min; ++: conversion greater than 40% after 30 min; +: conversion greater than 10% after 30 min; −: conversion less than 5% after 30 min) | –
c1nn[nH]n1 [1,2,3,4-Tetrazole] | +++ (key: +++: conversion greater than 70% after 30 min; ++: conversion greater than 40% after 30 min; +: conversion greater than 10% after 30 min; −: conversion less than 5% after 30 min) | ++ (key: +++: conversion greater than 70% after 30 min; ++: conversion greater than 40% after 30 min; +: conversion greater than 10% after 30 min; −: conversion less than 5% after 30 min) | –
c1ccc2[nH]nnc2c1 [1,2,3-Benzotriazole] | ++ (key: +++: conversion greater than 70% after 30 min; ++: conversion greater than 40% after 30 min; +: conversion greater than 10% after 30 min; −: conversion less than 5% after 30 min) | + (key: +++: conversion greater than 70% after 30 min; ++: conversion greater than 40% after 30 min; +: conversion greater than 10% after 30 min; −: conversion less than 5% after 30 min) | –
O=c1[nH]oc(=O)[nH]1 [1,2,4-Oxadiazolidine-3,5-dione] | − (key: +++: conversion greater than 70% after 30 min; ++: conversion greater than 40% after 30 min; +: conversion greater than 10% after 30 min; −: conversion less than 5% after 30 min) | + (key: +++: conversion greater than 70% after 30 min; ++: conversion greater than 40% after 30 min; +: conversion greater than 10% after 30 min; −: conversion less than 5% after 30 min) | –
c1nc[nH]n1 [1,2,4-Triazole] | +++ (key: +++: conversion greater than 70% after 30 min; ++: conversion greater than 40% after 30 min; +: conversion greater than 10% after 30 min; −: conversion less than 5% after 30 min) | ++ (key: +++: conversion greater than 70% after 30 min; ++: conversion greater than 40% after 30 min; +: conversion greater than 10% after 30 min; −: conversion less than 5% after 30 min) | –
Sc1nccs1 [2-Mercaptothiazole] | ++ (key: +++: conversion greater than 70% after 30 min; ++: conversion greater than 40% after 30 min; +: conversion greater than 10% after 30 min; −: conversion less than 5% after 30 min) | +++ (key: +++: conversion greater than 70% after 30 min; ++: conversion greater than 40% after 30 min; +: conversion greater than 10% after 30 min; −: conversion less than 5% after 30 min) | –
Sc1nc[nH]n1 [3 Mercapto-1,2,4-triazole] | + (key: +++: conversion greater than 70% after 30 min; ++: conversion greater than 40% after 30 min; +: conversion greater than 10% after 30 min; −: conversion less than 5% after 30 min) | +++ (key: +++: conversion greater than 70% after 30 min; ++: conversion greater than 40% after 30 min; +: conversion greater than 10% after 30 min; −: conversion less than 5% after 30 min) | –
O=C(O)c1ccc2[nH]nnc2c1 [5-Carboxy-1,2,3-benzotriazole] | ++ (key: +++: conversion greater than 70% after 30 min; ++: conversion greater than 40% after 30 min; +: conversion greater than 10% after 30 min; −: conversion less than 5% after 30 min) | + (key: +++: conversion greater than 70% after 30 min; ++: conversion greater than 40% after 30 min; +: conversion greater than 10% after 30 min; −: conversion less than 5% after 30 min) | –
Nc1nc2nn[nH]c2c(=O)[nH]1 [8-Azaguanine] | − (key: +++: conversion greater than 70% after 30 min; ++: conversion greater than 40% after 30 min; +: conversion greater than 10% after 30 min; −: conversion less than 5% after 30 min) | + (key: +++: conversion greater than 70% after 30 min; ++: conversion greater than 40% after 30 min; +: conversion greater than 10% after 30 min; −: conversion less than 5% after 30 min) | –
OCCS [Mercaptoethanol] | +++ (key: +++: conversion greater than 70% after 30 min; ++: conversion greater than 40% after 30 min; +: conversion greater than 10% after 30 min; −: conversion less than 5% after 30 min) | +++ (key: +++: conversion greater than 70% after 30 min; ++: conversion greater than 40% after 30 min; +: conversion greater than 10% after 30 min; −: conversion less than 5% after 30 min) | –
CC(=O)OC[C@H](N)C(=O)O [O-Acetyl-L-serine] | – | – | stability toward isomerization ([3]; pH 4.0): stable; rate of isomerization to N-acetyl-L-serine ([3]; pH 7.6): 1 %×min^−1
[SeH]c1ccccc1 [Phenylselenol] | ++ (key: +++: conversion greater than 70% after 30 min; ++: conversion greater than 40% after 30 min; +: conversion greater than 10% after 30 min; −: conversion less than 5% after 30 min) | +++ (key: +++: conversion greater than 70% after 30 min; ++: conversion greater than 40% after 30 min; +: conversion greater than 10% after 30 min; −: conversion less than 5% after 30 min) | –
[N-]=[N+]=[N-].[Na+] [Sodium azide] | +++ (key: +++: conversion greater than 70% after 30 min; ++: conversion greater than 40% after 30 min; +: conversion greater than 10% after 30 min; −: conversion less than 5% after 30 min) | +++ (key: +++: conversion greater than 70% after 30 min; ++: conversion greater than 40% after 30 min; +: conversion greater than 10% after 30 min; −: conversion less than 5% after 30 min) | –
[SeH2] [Sodium selenide] | +++ (key: +++: conversion greater than 70% after 30 min; ++: conversion greater than 40% after 30 min; +: conversion greater than 10% after 30 min; −: conversion less than 5% after 30 min) | +++ (key: +++: conversion greater than 70% after 30 min; ++: conversion greater than 40% after 30 min; +: conversion greater than 10% after 30 min; −: conversion less than 5% after 30 min) | –
Sc1ccccc1 [Thiophenol] | ++ (key: +++: conversion greater than 70% after 30 min; ++: conversion greater than 40% after 30 min; +: conversion greater than 10% after 30 min; −: conversion less than 5% after 30 min) | +++ (key: +++: conversion greater than 70% after 30 min; ++: conversion greater than 40% after 30 min; +: conversion greater than 10% after 30 min; −: conversion less than 5% after 30 min) | –
B1 | – | – | specific activity Acys (formation of cysteine using sulfide) [4]: 199 units/mg; specific activity AS-cys (formation of S-sulfocysteine using thiosulfate) ([4]; 10 mM sodium thiosulfate): 145 units/mg
B2 | – | – | specific activity Acys (formation of cysteine using sulfide) [4]: 140 units/mg
